Earlier results on one compound are cited in PubChem BioAssay AID1259409 (Chemical Carcinogenesis Research Information System (CCRIS), 2018).

This series deals with rodent chemically induced tumor inhibition, incidence and multiplicity. The series is described as follows: CCRIS tumor inhibitor studies. Conditions: Route [Inhibitor]: DERMAL, Species: MOUSE, Target Tissue: Type of Lesion: SKIN: PAPILLOMA, Promoter: 12-O-TETRADECANOYLPHORBOL-13-ACETATE, 16561-29-8.

SMILES strings stand for the structures.

Regarding `O=c1cc(-c2ccccc2)oc2c1ccc1ccccc12`, the “tumour outcome (control, treated, inhibition, significance)” value (Carcinogen: 7,14-DIMETHYLBENZO[A,H]ANTHRACENE, 35335-07-0, Dose [Inhibitor]: 0, 370 NMOL IN 0.2 ML ACETONE APPLIED 5 MIN PRIOR TO CARCINOGEN (STUDY DURATION: 21 WK), Strain/Sex: SENCAR/FEMALE, Dose [Carcinogen]: 47.5 NMOL IN 0.2 ML ACETONE ONCE) is 97%, 96%, 1%, not calculated; the “tumour outcome (control, treated, inhibition, significance)” value (Carcinogen: 7,14-DIMETHYLBENZO[A,H]ANTHRACENE, 35335-07-0, Dose [Inhibitor]: 0, 3700 NMOL IN 0.2 ML ACETONE APPLIED 5 MIN PRIOR TO CARCINOGEN (STUDY DURATION: 21 WK), Strain/Sex: SENCAR/FEMALE, Dose [Carcinogen]: 47.5 NMOL IN 0.2 ML ACETONE ONCE) was 97%, 97%, 0%; the “tumour outcome (control, treated, inhibition, significance)” value (Carcinogen: 7-(BROMOMETHYL)BENZ[A]ANTHRACENE, 24961-39-3, Dose [Inhibitor]: 100 UG IN 0.2 ML ACETONE ONCE 5 MIN BEFORE CARCINOGEN TREATMENT (STUDY DURATION: 31 WK), Strain/Sex: CD-1/FEMALE, Dose [Carcinogen]: 3125 NMOL IN 0.2 ML ACETONE ONCE) is 55%, 30%, 45%, not calculated; the “tumour outcome (control, treated, inhibition, significance)” value (Carcinogen: 7-BROMOMETHYL-12-METHYLBENZ[A]ANTHRACENE, 16238-56-5, Dose [Inhibitor]: 100 UG IN 0.2 ML ACETONE ONCE 5 MIN BEFORE CARCINOGEN TREATMENT (STUDY DURATION: 31 WK), Strain/Sex: CD-1/FEMALE, Dose [Carcinogen]: 600 NMOL IN 0.2 ML ACETONE ONCE) was 96%, 72%, 25%, not calculated; the “tumour outcome (control, treated, inhibition, significance)” value (Carcinogen: 7-FORMYL-12-METHYLBENZ[A]ANTHRACENE, 13345-61-4, Dose [Inhibitor]: 100 UG IN 0.2 ML ACETONE ONCE 5 MIN BEFORE CARCINOGEN TREATMENT (STUDY DURATION: 31 WK), Strain/Sex: CD-1/FEMALE, Dose [Carcinogen]: 740 NMOL IN 0.2 ML ACETONE ONCE) is recorded as 84%, 63%, 25%, not calculated; the “tumour outcome (control, treated, inhibition, significance)” value (Carcinogen: 7-HYDROXYMETHYL-12-METHYLBENZ[A]ANTHRACENE, 568-75-2, Dose [Inhibitor]: 100 UG IN 0.2 ML ACETONE ONCE 5 MIN BEFORE CARCINOGEN TREATMENT (STUDY DURATION: 31 WK), Strain/Sex: CD-1/FEMALE, Dose [Carcinogen]: 400 NMOL IN 0.2 ML ACETONE ONCE) is 48%, 52%, -8%, not calculated. Moreover, the “tumour outcome (control, treated, inhibition, significance)” value is recorded as 87%, 74%, 15%, not calculated (Carcinogen: 12-BROMOMETHYL-7-METHYLBENZ[A]ANTHRACENE, 59230-81-8, Dose [Inhibitor]: 100 UG IN 0.2 ML ACETONE ONCE 5 MIN BEFORE CARCINOGEN TREATMENT (STUDY DURATION: 31 WK), Strain/Sex: CD-1/FEMALE, Dose [Carcinogen]: 600 NMOL IN 0.2 ML ACETONE ONCE); 90%, 90%, 0%, not calculated (Carcinogen: BENZO[A]PYRENE, 50-32-8, Dose [Inhibitor]: 10 UG IN 0.2 ML ACETONE ONCE 5 MINUTES BEFORE CARCINOGEN TREATMENT (STUDY DURATION: 31 WK), Strain/Sex: CD-1/FEMALE, Dose [Carcinogen]: 400 NMOL IN 0.2 ML ACETONE ONCE); 90%, 80%, 11%, not calculated (Carcinogen: BENZO[A]PYRENE, 50-32-8, Dose [Inhibitor]: 100 UG IN 0.2 ML ACETONE ONCE 5 MINUTES BEFORE CARCINOGEN TREATMENT (STUDY DURATION: 31 WK), Strain/Sex: CD-1/FEMALE, Dose [Carcinogen]: 400 NMOL IN 0.2 ML ACETONE ONCE); 90%, 77%, 14%, not calculated (Carcinogen: BENZO[A]PYRENE, 50-32-8, Dose [Inhibitor]: 200 UG IN 0.2 ML ACETONE ONCE 5 MINUTES BEFORE CARCINOGEN TREATMENT (STUDY DURATION: 31 WK), Strain/Sex: CD-1/FEMALE, Dose [Carcinogen]: 400 NMOL IN 0.2 ML ACETONE ONCE); 100%, 77%, 23%, not calculated (Carcinogen: DIBENZO[A,H]ANTHRACENE, 53-70-3, Dose [Inhibitor]: 0, 370 NMOL IN 0.2 ML ACETONE APPLIED 5 MIN PRIOR TO CARCINOGEN (STUDY DURATION: 21 WK), Strain/Sex: SENCAR/FEMALE, Dose [Carcinogen]: 200 NMOL IN 0.2 ML ACETONE ONCE); 100%, 80%, 20%, not calculated (Carcinogen: DIBENZO[A,H]ANTHRACENE, 53-70-3, Dose [Inhibitor]: 0, 3700 NMOL IN 0.2 ML ACETONE APPLIED 5 MIN PRIOR TO CARCINOGEN (STUDY DURATION: 21 WK), Strain/Sex: SENCAR/FEMALE, Dose [Carcinogen]: 200 NMOL IN 0.2 ML ACETONE ONCE).
